Here are results for one molecule from patent US5405852A, “Amide derivatives” (Zeneca Limited, priority 1992, dated 1995).

In this test the target is T1, human leukocyte elastase (HLE) (Homo sapiens, UniProt P08246).
T1 sequence (P08246 30-267): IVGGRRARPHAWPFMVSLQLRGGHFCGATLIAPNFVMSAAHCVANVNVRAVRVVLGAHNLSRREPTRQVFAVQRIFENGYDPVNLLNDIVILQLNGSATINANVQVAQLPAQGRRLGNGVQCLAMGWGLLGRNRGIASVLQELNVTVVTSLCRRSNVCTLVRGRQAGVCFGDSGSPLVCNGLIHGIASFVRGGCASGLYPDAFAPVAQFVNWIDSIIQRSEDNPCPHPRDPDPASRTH
Description: Inhibition of human leukocyte elastase (HLE) on methoxy-succinyl-alanyl-alanyl-prolyl-valine-p-nitroanilide. It is filed as biochemical. The conditions noted are these: dissociation constant of the inhibitor-HLE complex. The method, then:
The potency of a Compound to act as an inhibitor of human leukocyte elastase (HLE) on the low molecular weight peptide substrate methoxy-succinyl-alanyl-alanyl-prolyl-valine-p-nitroanilide is determined as described in U.S. Pat. No. 4,910,190. The potency of an inhibitor is evaluated by obtaining a kinetic determination of the dissociation constant, Ki, of the complex formed from the interaction of the inhibitor with HLE. If a Compound is found to be a "slow-binding" inhibitor of HLE, special methods of analysis to accurately determine Ki values for the inhibition of HLE are carried out as described in U.S. Pat. 4,910,190.

Consider `CC(C)C(NC(=O)Cn1c(-c2ccccc2)cc2c([nH]c3c(C=O)cccc32)c1=O)C(=O)C(F)(F)F` (stereo not shown) [Example 2, 2-(8-Formyl-1-oxo-3-phenyl-1,2-dihydropyrido[3,4-b]indol2-yl)-N-(3,3,3-trifluoro-1-isopropyl-2-oxopropyl)acetamide], for which the Ki was determined as 0.027 µM.

The term Ki denotes a dissociation constant, usually derived from enzyme kinetics or from competition with a known ligand.
